Data reported in patent US6913760B2, “Drug delivery composition” (New England Medical Hospitals, Inc., priority 2001, dated 2005).
Values joined by “and” are separate entries in the source; they are usually repeats but may differ in a detail not shown here. Identical values can stand only once. Marks after values point to notes of the source that are not given here.

Columns and labels:
[1] = tested on: rats with sciatic nerve ligation; test: Paw withdrawal threshold after sciatic nerve ligation, rods placed parallel to the nerve; assay type: in vivo, Sprague-Dawley rats
[2] = In vitro release of BP or HM from PLGA 50:50 rods; assay type: physicochemical; settings: BP rods of first batch
rats [3] = test: Tail flick test after intrathecal implantation of PLGA rods; assay type: in vivo; settings: for % MPE, tail flick test, Average: average of 6 rats
[4] = Drug release studies of PLGA 85:15 rods (Example 2); assay type: physicochemical
[5] = rat
rats [6] = test: Paw withdrawal test after intrathecal implantation of PLGA rods; assay type: in vivo; settings: for % MPE, paw withdrawal test, Average: average of 6 rats
rats [7] = test: Anesthesia after intrathecal polymeric implants, all sites tested (Example 2); assay type: in vivo; settings: intrathecal rods
[8] = trapezoidal method, individual rats, listed as BP
[9] = trapezoidal method, mean of 6 rats

CCCCN1CCCCC1C(=O)Nc1c(C)cccc1C (stereo not shown) [Bupivacaine, bupivacaine]
analgesia, paw withdrawal threshold (difference score) ([1]; dose doubled (4 rods/rat)): possible to achieve the analgesic effect
analgesia, paw withdrawal threshold (difference score) ([1]; first part, single dose (2 rods/rat)): insufficient to provide analgesia
in vitro release behavior [2]: zero order release pattern with two different rates
% MPE, tail flick test, Average (rats [3]; 2h): 40.52 % MPE
% MPE, tail flick test (rats [3]; 2h after intrathecal implantation of PLGA rod, individual rats): 31.19 % MPE and 41.43 % MPE and 63.08 % MPE and 30.89 % MPE and 23.85 % MPE and 52.69 % MPE
% MPE, tail flick test, Average (rats [3]; 4h): 39.06 % MPE
% MPE, tail flick test (rats [3]; 4h, individual rats): 24.2268 % MPE and 38.87 % MPE and 40.26 % MPE and 44.7644 % MPE and 11.79 % MPE and 74.46 % MPE
Area under the curve (AUC), tail flick test (rats [3]; % MPE versus time in days, trapezoidal method, individual rats, listed as BP): 130.77 and 82.59 and 112.23 and 137.33 and 90.32 and 72.88
Area under the curve (AUC), tail flick test, Mean (rats [3]; % MPE versus time in days, trapezoidal method, mean of 6 rats): 104.35 * #
% MPE, tail flick test, Average (rats [3]; D1): 23.1672 % MPE
% MPE, tail flick test (rats [3]; D1, individual rats): 14.95 % MPE and 27.11 % MPE and 31.79 % MPE and 25.65 % MPE and 11.54 % MPE and 27.96 % MPE
% MPE, tail flick test, Average (rats [3]; D2): 22.55 % MPE
% MPE, tail flick test (rats [3]; D2, individual rats): 13.4 % MPE and 32.23 % MPE and 40.51 % MPE and 16.49 % MPE and 13.33 % MPE and 19.35 % MPE
% MPE, tail flick test, Average (rats [3]; D3): 19.97 % MPE
% MPE, tail flick test (rats [3]; D3, individual rats): 14.95 % MPE and 22.51 % MPE and 26.92 % MPE and 13.87 % MPE and 18.46 % MPE and 23.12 % MPE
% MPE, tail flick test, Average (rats [3]; D4): 10.7 % MPE
% MPE, tail flick test (rats [3]; D4, individual rats): 14.43 % MPE and 14.0665 % MPE and 7.949 % MPE and 5.236 % MPE and 12.5641 % MPE and 9.946 % MPE
% MPE, tail flick test, Average (rats [3]; D5): 8.394 % MPE
% MPE, tail flick test (rats [3]; D5, individual rats): 9.536 % MPE and 4.092 % MPE and 7.692 % MPE and 5.236 % MPE and 7.949 % MPE and 15.86 % MPE
% MPE, tail flick test, Average (rats [3]; D6): 5.511 % MPE
% MPE, tail flick test (rats [3]; D6, individual rats): 8.247 % MPE and 0.7673 % MPE and 7.949 % MPE and 8.115 % MPE and 7.179 % MPE and 0.8065 % MPE
relative rate of drug release [4]: released faster than the other two drugs
release order [4]: almost zero order
release from rods retrieved after termination of in vivo test [5]: suppressed release
% MPE, paw withdrawal test, Average (rats [6]; 2h, L): 26.10 % MPE
% MPE, paw withdrawal test, Average (rats [6]; 2h, R): 27.87 % MPE
% MPE, paw withdrawal test (rats [6]; 2h, left (L) hind paw, individual rats): 24.92 % MPE and 36.09 % MPE and 19.26 % MPE and 23.67 % MPE and 15.95 % MPE and 36.73 % MPE
% MPE, paw withdrawal test (rats [6]; 2h, right (R) hind paw, individual rats): 19.06 % MPE and 39.35 % MPE and 20.77 % MPE and 27 % MPE and 22.43 % MPE and 38.63 % MPE
% MPE, paw withdrawal test, Average (rats [6]; 4h, L): 26.48 % MPE
% MPE, paw withdrawal test (rats [6]; 4h, L, individual rats): 27.69 % MPE and 55.64 % MPE and 11.48 % MPE and 14.67 % MPE and 37.74 % MPE and 11.64 % MPE
% MPE, paw withdrawal test, Average (rats [6]; 4h, R): 29.68 % MPE
% MPE, paw withdrawal test (rats [6]; 4h, R, individual rats): 38.12 % MPE and 58.84 % MPE and 13.08 % MPE and 12 % MPE and 44.11 % MPE and 11.91 % MPE
% MPE, paw withdrawal test, Average (rats [6]; D1, L): 23.61 % MPE
% MPE, paw withdrawal test (rats [6]; D1, L, individual rats): 33.85 % MPE and 35.71 % MPE and 11.11 % MPE and 39 % MPE and 13.62 % MPE and 8.36 % MPE
% MPE, paw withdrawal test, Average (rats [6]; D1, R): 22.68 % MPE
% MPE, paw withdrawal test (rats [6]; D1, R, individual rats): 30.62 % MPE and 43.32 % MPE and 11.54 % MPE and 32 % MPE and 11.03 % MPE and 7.58 % MPE
% MPE, paw withdrawal test, Average (rats [6]; D2, L): 26.91 % MPE
% MPE, paw withdrawal test (rats [6]; D2, L, individual rats): 28.92 % MPE and 42.86 % MPE and 18.15 % MPE and 29 % MPE and 33.07 % MPE and 9.45 % MPE
% MPE, paw withdrawal test, Average (rats [6]; D2, R): 27.13 % MPE
% MPE, paw withdrawal test (rats [6]; D2, R, individual rats): 28.12 % MPE and 44.76 % MPE and 15.77 % MPE and 28.33 % MPE and 34.60 % MPE and 11.19 % MPE
% MPE, paw withdrawal test, Average (rats [6]; D3, L): 15.06 % MPE
% MPE, paw withdrawal test (rats [6]; D3, L, individual rats): 20.37 % MPE and 7.33 % MPE and 9.73 % MPE and 5.09 % MPE and 16.62 % MPE and 31.20 % MPE
% MPE, paw withdrawal test, Average (rats [6]; D3, R): 15.70 % MPE
% MPE, paw withdrawal test (rats [6]; D3, R, individual rats): 17.31 % MPE and 4.67 % MPE and 12.55 % MPE and 0.36 % MPE and 24.69 % MPE and 34.66 % MPE
% MPE, paw withdrawal test, Average (rats [6]; D4, L): 9.72 % MPE
% MPE, paw withdrawal test (rats [6]; D4, L, individual rats): 7.78 % MPE and 13.67 % MPE and 1.55 % MPE and 0 % MPE and 25.54 % MPE and 9.77 % MPE
% MPE, paw withdrawal test, Average (rats [6]; D4, R): 9.56 % MPE
% MPE, paw withdrawal test (rats [6]; D4, R, individual rats): 8.46 % MPE and 15.67 % MPE and 0.76 % MPE and 1.08 % MPE and 20.94 % MPE and 10.47 % MPE
% MPE, paw withdrawal test, Average (rats [6]; D5, L): 6.49 % MPE
% MPE, paw withdrawal test (rats [6]; D5, L, individual rats): 0.74 % MPE and 1 % MPE and 1.94 % MPE and 1.45 % MPE and 18.77 % MPE and 15.04 % MPE
% MPE, paw withdrawal test, Average (rats [6]; D5, R): 6.55 % MPE
% MPE, paw withdrawal test (rats [6]; D5, R, individual rats): 0.38 % MPE and 3 % MPE and 2.66 % MPE and 1.44 % MPE and 18.44 % MPE and 13.36 % MPE
% MPE, paw withdrawal test, Average (rats [6]; D6, L): 4.88 % MPE
% MPE, paw withdrawal test (rats [6]; D6, L, individual rats): 0.37 % MPE and 7 % MPE and 0.39 % MPE and −1.82 % MPE and 10.15 % MPE and 13.16 % MPE
% MPE, paw withdrawal test, Average (rats [6]; D6, R): 7.35 % MPE
% MPE, paw withdrawal test (rats [6]; D6, R, individual rats): 0.77 % MPE and 11 % MPE and 4.94 % MPE and 2.89 % MPE and 9.69 % MPE and 14.80 % MPE
Area under the curve (AUC), paw withdrawal test (left side) (rats [6]; [8]): 165.34 and 63.50 and 98.08 and 77.02 and 29.59 and 139.80
Area under the curve (AUC), paw withdrawal test (right side) (rats [6]; [8]): 179.14 and 59.77 and 93.21 and 84.38 and 29.51 and 143.50
Area under the curve (AUC), paw withdrawal test (left side), Mean (rats [6]; [9]): 95.55 * #
Area under the curve (AUC), paw withdrawal test (right side), Mean (rats [6]; [9]): 98.25 * #
duration of anesthesia/analgesia (rats [7]): at least 4 days
